Measured values: patent publication US8791075B2, “Methods and compositions for inhibition of BCL6 repression” (Albert Einstein College of Medicine of Yeshiva University, priority 2008, dated 2014)
Square brackets hold non-standard residues; d marks the D form. Ends that are not written are not given here. Peptide text beside a SMILES is read from it.

Tested on: DLBCL cell lines known to be biologically dependent on BCL6 (ly1, Ly7 and Ly10)
Experiment: DLBCL cell growth inhibition, BCL6-dependent cell lines
Type: cell-based, human
Settings: for anti-lymphoma activity: BCL6 dependent DLBCL cells, 48 h; for GI50: Ly1, Ly7, Ly10, 48 hr total amount, dose frequency as in Table 1
Method: DLBCL cell lines were grown at its respective concentration that were sufficient to keep the untreated cells in exponential growth over the 48 h peptide exposure time. Cell viability was determined by using a fluorometric resazurin reduction method (CellTiter-Blue, Promega) following the manufacturer instructions. The fluorescence (560Ex/590Em) was determined using the Polarstar Optima microplate reader (BMG Labtechnologies). The number of viable cells in each treated well was calculated by using the linear least-squares regression of the standard curve. Optical density was determined for 6 replicates per treatment condition or standard. Cell viability in peptide-treated cells was normalized to their respective controls. Cell viability was verified by the Sulforhodamine B assay (Sigma, Milwaukee, Wis.) following manufacturer's instructions with minor modifications for suspended cells. Experiments were carried out in triplicates and data are represented as percentage of growth inhibition to respective control with 95% confidence interval.
DLBCL cell growth inhibition was chosen as the most relevant screening assay to compare and contrast the biological activity of BPI and its derivatives. […] Growth inhibition was measured by a metabolic viability assay and verified by trypan blue exclusion and were performed in biological quintuplicates. […]

Question: YGRKKRRQRRRGGLVATVKEAGRSIHEIPREEL [S1] was tested. Which “anti-lymphoma activity” value did it give?
Answer: Its value is “not active”.

Question: With “G[dD][dI][dM]G[dE][dW]G[dN][dE][dI][dF]G[dA][dI][dA]G[dF][dL]GG[dR][dR][dR][dQ][dR][dR][dK][dK][dR]GGRSIHEIPRG [S4]” as the molecule, how does the GI50 read?
Answer: Its GI50 is 14.4 µM.

Question: For CC[C@@H](C)[C@@H](NC(=O)CNC(=O)[C@@H](CCCNC(=N)N)NC(=O)CNC(=O)CNC(=O)[C@@H](CCCNC(=N)N)NC(=O)[C@@H](CCCCN)NC(=O)[C@@H](CCCCN)NC(=O)[C@@H](CCCNC(=N)N)NC(=O)[C@@H](CCCNC(=N)N)NC(=O)[C@@H](CCC(N)=O)NC(=O)[C@@H](CCCNC(=N)N)NC(=O)[C@@H](CCCNC(=N)N)NC(=O)[C@@H](CCCNC(=N)N)NC(=O)CN)C(=O)N[C@H](CCC(=O)O)C(=O)N[C@H](Cc1c[nH]cn1)C(=O)N[C@@H](C(=O)N[C@H](CO)C(=O)N[C@H](CCCNC(=N)N)C(=O)NCC(=O)O)[C@H](C)CC [S7] (H-G[dR][dR][dR][dQ][dR][dR][dK][dK][dR]GG[dR]G[dI][dE][dH][dI][dS][dR]G-OH; N-terminus and C-terminus assumed), which “anti-lymphoma activity” value is on record?
Answer: The value was “significantly weaker”.

Question: “NH2-GLFGAIAGFIENGWEGMIDG-OH (H-GLFGAIAGFIENGWEGMIDG-OH) [Fu, reference compound]” was tested. Which “effect on DLBCL viability (FIG. 8)” value (Ly1, Ly7 and Ly10, peptides administered every 4 h during a 48 h interval) did it give?
Answer: Its value is “little or no effect”.

Question: With YGRKKRRQRRRGGRSIHEIPRG [S2] as the molecule, how does the GI50 read?
Answer: Its GI50 is 21.7 µM.
